Consider one compound from PMC8571951, “An activity‐based bioprobe differentiates a novel small molecule inhibitor from a LOXL2 antibody and provides renewed promise for anti‐fibrotic therapeutic strategies” (Clinical and Translational Medicine, 2021).

As usually defined, the IC50 is the concentration needed to halve the response being measured.

A short description of data set [1]: Tissue levels after single oral dose in the rat. The data set is classed as in vivo. The settings on record: single oral dose 30 mg/kg, 1 and 4 h. Here is the method:
(§1) FIGURE 2 Characteristics of PXS‐5338 and inhibition of lysyl oxidase‐like 2 (LOXL2) enzymatic activity in vitro and in vivo. (A) Chemical structure of PXS‐5338. […] (B) Tissue levels of PXS‐5338 measured 1 and 4 h after a single oral dose of 30 mg/kg in the rat. […] Average data from three different animals. (C) Concentration‐dependent inhibition of native […] LOX and rh LOXL1‐4 in a standard Amplex Red assay with 30 min pre‐incubation; n ≥3 independent experiments, standard error of mean (SEM). (D) PXS‐5338 inhibits rh LOXL2 in a time‐dependent manner, with increasing potency observed upon longer incubation with the enzyme. LOXL2 activity data devised from Amplex Red assay using putrescine as substrate and varying pre‐incubation times; n ≥3 independent experiments, standard error of mean (SEM). […] AB0023 and the corresponding isotype control antibody GS834298 were kindly provided by Gilead. Concentration‐response curves for the pan‐LOX inhibitor BAPN and LOXL2‐selective inhibitor PXS‐5338 are included for comparison. Data represented as mean ± SD with n = 5/concentration. […] To enable translation of preclinical data into the clinic, human plasma was incubated with different concentrations of PXS‐5338 for 30 min and the PXS‐5878/Simoa® platform used to measure the residual activity. […]

For data set [2], the target named is T1, native LOXL2 protein in human plasma (Homo sapiens, UniProt Q9Y4K0).
T1 construct: from tissue; host or cells: human plasma (activity) and human serum (protein concentration) from clinical trial subjects
T1 sequence (Q9Y4K0 26-774): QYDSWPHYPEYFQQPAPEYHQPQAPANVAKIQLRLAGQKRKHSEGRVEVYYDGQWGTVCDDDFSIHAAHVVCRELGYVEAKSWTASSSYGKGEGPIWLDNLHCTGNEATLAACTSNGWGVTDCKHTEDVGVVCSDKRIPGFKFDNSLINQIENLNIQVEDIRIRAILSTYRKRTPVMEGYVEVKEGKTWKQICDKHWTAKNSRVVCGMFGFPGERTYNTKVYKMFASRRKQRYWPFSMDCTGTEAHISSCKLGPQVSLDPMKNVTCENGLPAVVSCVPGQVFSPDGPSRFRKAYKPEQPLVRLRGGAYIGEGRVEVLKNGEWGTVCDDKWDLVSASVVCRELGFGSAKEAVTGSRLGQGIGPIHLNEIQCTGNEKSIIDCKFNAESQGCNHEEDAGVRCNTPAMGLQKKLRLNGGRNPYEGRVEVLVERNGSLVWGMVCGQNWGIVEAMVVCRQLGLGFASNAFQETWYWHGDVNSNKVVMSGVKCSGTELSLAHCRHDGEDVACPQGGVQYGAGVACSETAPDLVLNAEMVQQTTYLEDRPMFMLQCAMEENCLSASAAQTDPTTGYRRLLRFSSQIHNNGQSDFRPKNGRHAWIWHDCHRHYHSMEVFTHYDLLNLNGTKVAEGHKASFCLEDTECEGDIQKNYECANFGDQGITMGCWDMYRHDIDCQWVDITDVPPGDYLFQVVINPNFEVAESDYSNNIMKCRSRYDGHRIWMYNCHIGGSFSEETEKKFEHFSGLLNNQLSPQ
Briefly: PXS-5878/Simoa platform, residual LOXL2 activity in human plasma. Type of data set: biochemical. Conditions: human plasma incubated 30 min; read-out: IC50, inhibition of native LOXL2 in human plasma. How it is done: as §1

`CC(C)c1c(Cc2ccc(S(C)(=O)=O)nc2)c2ncccc2n1C/C(F)=C/CN` [PXS‐5338]: in data set [1], the “Tissue penetration / distribution” value is “good penetration, with preferential distribution to the liver followed by the kidney, lung and heart”. Also, the IC50 in data set [2] was 37 nM.
